In patent US8895733B2 (Novartis AG, priority 2010, dated 2014):
Like-named read-outs stand apart in the source and are kept apart here.

Target: T1, Nav 1.7 (Homo sapiens, UniProt Q15858)
T1 construct: expressed in transfected cells
Experiment: Whole-cell voltage clamp electrophysiology, automated patch clamp (marker c in Table of Examples)
Type: cell-based
Settings: read-out: Nav 1.7 activity
Procedure, shortened: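 Human NaV1.7 currents were recorded by whole-cell automated patch clamp, on IonWorks Quattro or another automated platform, typically in perforated-patch configuration. The stimulus protocol was designed to probe block mainly of the inactivated state, with a typical sweep stepping from about −65 mV holding to −10 mV, then −100 mV.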

[1] = marker c: Automated patch clamp data
[2] = marker c = Automated patch clamp data

T1 sequence (Q15858 whole entry): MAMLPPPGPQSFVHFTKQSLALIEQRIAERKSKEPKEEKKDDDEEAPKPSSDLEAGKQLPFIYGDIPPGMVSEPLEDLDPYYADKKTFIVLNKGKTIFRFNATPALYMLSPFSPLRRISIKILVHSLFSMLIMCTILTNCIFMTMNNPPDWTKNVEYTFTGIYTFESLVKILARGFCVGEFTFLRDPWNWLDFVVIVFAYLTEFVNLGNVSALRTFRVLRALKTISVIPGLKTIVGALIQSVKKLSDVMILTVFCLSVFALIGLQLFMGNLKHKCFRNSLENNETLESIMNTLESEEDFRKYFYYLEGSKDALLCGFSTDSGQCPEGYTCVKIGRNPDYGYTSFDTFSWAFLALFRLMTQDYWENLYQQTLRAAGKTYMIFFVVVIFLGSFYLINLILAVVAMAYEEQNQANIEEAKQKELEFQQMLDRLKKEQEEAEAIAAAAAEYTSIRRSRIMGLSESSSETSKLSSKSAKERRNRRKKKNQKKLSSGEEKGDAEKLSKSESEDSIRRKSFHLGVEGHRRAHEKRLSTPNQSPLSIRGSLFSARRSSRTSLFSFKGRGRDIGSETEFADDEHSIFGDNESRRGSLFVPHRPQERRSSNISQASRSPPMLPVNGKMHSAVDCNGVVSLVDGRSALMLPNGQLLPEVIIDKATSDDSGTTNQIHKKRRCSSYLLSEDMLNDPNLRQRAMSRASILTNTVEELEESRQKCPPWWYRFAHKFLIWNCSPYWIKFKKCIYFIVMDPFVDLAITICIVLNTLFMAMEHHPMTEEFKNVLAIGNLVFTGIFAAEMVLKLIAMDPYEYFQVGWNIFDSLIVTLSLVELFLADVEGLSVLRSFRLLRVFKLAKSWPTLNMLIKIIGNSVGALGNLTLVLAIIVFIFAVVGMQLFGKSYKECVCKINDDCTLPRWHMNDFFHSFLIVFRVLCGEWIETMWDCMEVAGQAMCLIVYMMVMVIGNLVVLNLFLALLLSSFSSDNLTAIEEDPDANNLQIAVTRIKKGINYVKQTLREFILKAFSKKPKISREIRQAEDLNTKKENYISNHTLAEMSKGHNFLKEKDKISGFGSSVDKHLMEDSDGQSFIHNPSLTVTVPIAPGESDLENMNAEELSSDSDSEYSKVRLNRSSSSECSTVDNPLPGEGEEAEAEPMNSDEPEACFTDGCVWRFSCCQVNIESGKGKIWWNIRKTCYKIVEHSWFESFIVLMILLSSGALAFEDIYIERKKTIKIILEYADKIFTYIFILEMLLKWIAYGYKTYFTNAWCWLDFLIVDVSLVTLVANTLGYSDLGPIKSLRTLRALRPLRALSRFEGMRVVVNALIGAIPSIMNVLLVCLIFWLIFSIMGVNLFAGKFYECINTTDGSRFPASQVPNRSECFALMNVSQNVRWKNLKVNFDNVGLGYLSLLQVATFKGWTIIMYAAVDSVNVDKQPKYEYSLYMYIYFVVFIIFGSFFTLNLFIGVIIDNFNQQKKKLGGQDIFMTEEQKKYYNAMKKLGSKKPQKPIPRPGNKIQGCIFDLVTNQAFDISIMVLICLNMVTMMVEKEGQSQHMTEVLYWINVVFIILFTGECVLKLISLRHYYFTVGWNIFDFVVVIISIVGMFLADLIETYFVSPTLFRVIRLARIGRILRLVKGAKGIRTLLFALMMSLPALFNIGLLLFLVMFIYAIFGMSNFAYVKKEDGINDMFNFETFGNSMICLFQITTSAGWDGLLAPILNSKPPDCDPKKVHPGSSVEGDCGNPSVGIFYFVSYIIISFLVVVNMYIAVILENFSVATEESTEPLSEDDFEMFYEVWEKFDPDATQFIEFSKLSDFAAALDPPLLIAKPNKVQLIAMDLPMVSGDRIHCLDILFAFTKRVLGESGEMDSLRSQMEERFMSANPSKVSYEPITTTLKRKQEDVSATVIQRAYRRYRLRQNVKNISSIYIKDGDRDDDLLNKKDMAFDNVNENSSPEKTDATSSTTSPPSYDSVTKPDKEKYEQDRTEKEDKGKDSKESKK

| Structure (SMILES) | IC50 [1] [µM] | IC50 [2] [µM] |
| --- | --- | --- |
| COc1cc(F)ccc1-c1nc(-c2nc(N)nc(N(C)c3cccc(C)c3)n2)no1 [Example 187, 6-[5-(4-fluoro-2-methoxyphenyl)-1,2,4-oxadiazol-3-yl]-2-N-methyl-2-N-(3-methylphenyl)-1,3,5-triazine-2,4-diamine] | 0.458 | – |
| COc1ccc(-c2nc(-c3nc(N)nc(N(C)c4cccc(C)c4)n3)no2)c(OC)c1 [Example 188, 6-[5-(2,4-dimethoxyphenyl)-1,2,4-oxadiazol-3-yl]-2-N-methyl-2-N-(3-methylphenyl)-1,3,5-triazine-2,4-diamine] | 7.63 | – |
| Cc1cccc(N(C)c2nc(N)nc(-c3noc(-c4ccccc4OC(F)(F)F)n3)n2)c1 [Example 194, 2-N-methyl-2-N-(3-methylphenyl)-6-{5-[2-(trifluoromethoxy)phenyl]-1,2,4-oxadiazol-3-yl}-1,3,5-triazine-2,4-diamine] | 0.843 | – |
| CCOc1ccccc1-c1nc(-c2nc(N)nc(N(CC)c3ccccc3)n2)no1 [Example 196, 6-[5-(2-ethoxyphenyl)-1,2,4-oxadiazol-3-yl]-2-N-ethyl-2-N-phenyl-1,3,5-triazine-2,4-diamine] | 0.764 | – |
| CCN(c1ccccc1)c1nc(N)nc(-c2noc(-c3ccccc3OC(F)(F)F)n2)n1 [Example 198, 2-N-ethyl-2-N-phenyl-6-{5-[2-(trifluoromethoxy)phenyl]-1,2,4-oxadiazol-3-yl}-1,3,5-triazine-2,4-diamine] | 0.777 | – |
| CCCS(=O)(=O)N1CCC(c2nc(-c3nc(N)nc(N(C)c4ccccc4)n3)no2)C1 (stereo not shown) [Example 200, 2-N-methyl-2-N-phenyl-6-{5-[1-(propane-1-sulfonyl)pyrrolidin-3-yl]-1,2,4-oxadiazol-3-yl}-1,3,5-triazine-2,4-diamine] | – | 8.59 |
| CN(c1ccccc1)c1nc(N)nc(-c2noc(C3CCN(S(=O)(=O)CC(F)(F)F)C3)n2)n1 (stereo not shown) [Example 202, 2-N-methyl-2-N-phenyl-6-(5-{1-[(2,2,2-trifluoroethane)sulfonyl]pyrrolidin-3-yl}-1,2,4-oxadiazol-3-yl)-1,3,5-triazine-2,4-diamine] | – | 1.79 |
| CN(c1ccccc1)c1nc(N)nc(-c2noc(C3CCN(S(=O)(=O)c4ccccc4)C3)n2)n1 (stereo not shown) [Example 203, 6-{5-[1-(benzenesulfonyl)pyrrolidin-3-yl]-1,2,4-oxadiazol-3-yl}-2-N-methyl-2-N-phenyl-1,3,5-triazine-2,4-diamine] | – | 4.56 |
| CN(c1ccccc1)c1nc(N)nc(-c2noc(C3CCN(CCC(F)(F)F)C3)n2)n1 (stereo not shown) [Example 204, 2-N-methyl-2-N-phenyl-6-{5-[1-(3,3,3-trifluoropropyl)pyrrolidin-3-yl]-1,2,4-oxadiazol-3-yl}-1,3,5-triazine-2,4-diamine] | – | > 7.83 |
| CC(CC(F)(F)F)N1CCC(c2nc(-c3nc(N)nc(N(C)c4ccccc4)n3)no2)C1 (stereo not shown) [Example 205, 2-N-methyl-2-N-phenyl-6-{5-[1-(4,4,4-trifluorobutan-2-yl)pyrrolidin-3-yl]-1,2,4-oxadiazol-3-yl}-1,3,5-triazine-2,4-diamine] | – | 1.53 |
| CC(OCc1ccc(-c2nc(-c3nc(N)nc(N(C)c4ccccc4)n3)no2)cn1)C(F)(F)F (stereo not shown) [Example 206, 2-N-methyl-2-N-phenyl-6-[5-(6-{[(1,1,1-trifluoropropan-2-yl)oxy]methyl}pyridin-3-yl)-1,2,4-oxadiazol-3-yl]-1,3,5-triazine-2,4-diamine] | – | 0.017 |
| CN(c1ccccc1)c1nc(N)nc(-c2noc(-c3ccc(COCC4CC4)nc3)n2)n1 [Example 208, 6-(5-{6-[(cyclopropylmethoxy)methyl]pyridin-3-yl}-1,2,4-oxadiazol-3-yl)-2-N-methyl-2-N-phenyl-1,3,5-triazine-2,4-diamine] | – | 0.113 |
| CC(OCC(F)(F)F)c1ccc(-c2nc(-c3nc(N)nc(N(C)c4ccccc4)n3)no2)cn1 (stereo not shown) [Example 209, 2-N-methyl-2-N-phenyl-6-(5-{6-[1-(2,2,2-trifluoroethoxy)ethyl]pyridin-3-yl}-1,2,4-oxadiazol-3-yl)-1,3,5-triazine-2,4-diamine] | – | 0.074 |
| Nc1nc(Nc2ccccc2)nc(-c2noc(-c3ccc(COC4CCC4)nc3)n2)n1 [Example 213, 6-{5-[6-(cyclobutoxymethyl)pyridin-3-yl]-1,2,4-oxadiazol-3-yl}-2-N-phenyl-1,3,5-triazine-2,4-diamine] | – | 0.067 |
| Nc1nc(Nc2ccccc2)nc(-c2noc(N3CCC(COC4CCC4)CC3)n2)n1 [Example 215, 6-{5-[4-(cyclobutoxymethyl)piperidin-1-yl]-1,2,4-oxadiazol-3-yl}-2-N-phenyl-1,3,5-triazine-2,4-diamine] | – | 0.28 |
| CN(c1ccccc1)c1nc(N)nc(-c2noc(N3CCC(COC4CCC4)CC3)n2)n1 [Example 217, 6-{5-[4-(cyclobutoxymethyl)piperidin-1-yl]-1,2,4-oxadiazol-3-yl}-2-N-methyl-2-N-phenyl-1,3,5-triazine-2,4-diamine] | – | 0.415 |

The remaining lines, values ahead:

| IC50 [1] [µM] | IC50 [2] [µM] | Structure (SMILES) |
| --- | --- | --- |
| 0.287 | – | CS(=O)(=O)c1cccc(Nc2nc(N)nc(-c3noc(-c4ccc(OCC(F)(F)F)nc4)n3)n2)c1 [Example 189, 2-N-(3-methanesulfonylphenyl)-6-{5-[6-(2,2,2-trifluoroethoxy)pyridin-3-yl]-1,2,4-oxadiazol-3-yl}-1,3,5-triazine-2,4-diamine] |
| 0.106 | – | CCN(c1ccccc1)c1nc(N)nc(-c2noc(-c3ccc(OC)cc3)n2)n1 [Example 190, 2-N-ethyl-6-[5-(4-methoxyphenyl)-1,2,4-oxadiazol-3-yl]-2-N-phenyl-1,3,5-triazine-2,4-diamine] |
| 0.067 | – | CCN(c1ccccc1)c1nc(N)nc(-c2noc(-c3c(F)cccc3OC)n2)n1 [Example 191, 2-N-ethyl-6-[5-(2-fluoro-6-methoxyphenyl)-1,2,4-oxadiazol-3-yl]-2-N-phenyl-1,3,5-triazine-2,4-diamine] |
| 0.123 | – | CCN(c1ccccc1)c1nc(N)nc(-c2noc(-c3ccccc3Cl)n2)n1 [Example 192, 6-[5-(2-chlorophenyl)-1,2,4-oxadiazol-3-yl]-2-N-ethyl-2-N-phenyl-1,3,5-triazine-2,4-diamine] |
| 0.083 | – | CCN(c1ccccc1)c1nc(N)nc(-c2noc(-c3ccc(F)cc3Cl)n2)n1 [Example 193, 6-[5-(2-chloro-4-fluorophenyl)-1,2,4-oxadiazol-3-yl]-2-N-ethyl-2-N-phenyl-1,3,5-triazine-2,4-diamine] |
| 0.431 | – | Cc1cccc(N(C)c2nc(N)nc(-c3noc(-c4ccccc4Cl)n3)n2)c1 [Example 195, 6-[5-(2-chlorophenyl)-1,2,4-oxadiazol-3-yl]-2-N-methyl-2-N-(3-methylphenyl)-1,3,5-triazine-2,4-diamine] |
| 0.571 | – | CCN(c1ccccc1)c1nc(N)nc(-c2noc(-c3cc(F)ccc3OC)n2)n1 [Example 197, 2-N-ethyl-6-[5-(5-fluoro-2-methoxyphenyl)-1,2,4-oxadiazol-3-yl]-2-N-phenyl-1,3,5-triazine-2,4-diamine] |
| – | 8.73 | COc1ccccc1Cc1nc(-c2nc(N)nc(N(C)c3ccccc3)n2)no1 [Example 199, 6-{5-[(2-methoxyphenyl)methyl]-1,2,4-oxadiazol-3-yl}-2-N-methyl-2-N-phenyl-1,3,5-triazine-2,4-diamine] |
| – | 3.29 | CC(C)S(=O)(=O)N1CCC(c2nc(-c3nc(N)nc(N(C)c4ccccc4)n3)no2)C1 (stereo not shown) [Example 201, 2-N-methyl-2-N-phenyl-6-{5-[1-(propane-2-sulfonyl)pyrrolidin-3-yl]-1,2,4-oxadiazol-3-yl}-1,3,5-triazine-2,4-diamine] |
| – | 0.033 | CC(OCc1ccc(-c2nc(-c3nc(N)nc(Nc4ccccc4)n3)no2)cn1)C(F)(F)F (stereo not shown) [Example 210, 2-N-phenyl-6-[5-(6-{[(1,1,1-trifluoropropan-2-yl)oxy]methyl}pyridin-3-yl)-1,2,4-oxadiazol-3-yl]-1,3,5-triazine-2,4-diamine] |
| – | 0.044 | Nc1nc(Nc2ccccc2)nc(-c2noc(-c3ccc(COCC4CC4)nc3)n2)n1 [Example 211, 6-(5-{6-[(cyclopropylmethoxy)methyl]pyridin-3-yl}-1,2,4-oxadiazol-3-yl)-2-N-phenyl-1,3,5-triazine-2,4-diamine] |
| – | 0.211 | CC(OCC(F)(F)F)c1ccc(-c2nc(-c3nc(N)nc(Nc4ccccc4)n3)no2)cn1 (stereo not shown) [Example 212, 2-N-phenyl-6-(5-{6-[1-(2,2,2-trifluoroethoxy)ethyl]pyridin-3-yl}-1,2,4-oxadiazol-3-yl)-1,3,5-triazine-2,4-diamine] |
| – | 0.233 | Nc1nc(Nc2ccccc2)nc(-c2noc(N3CCC(COCC4CC4)CC3)n2)n1 [Example 214, 6-(5-{4-[(cyclopropylmethoxy)methyl]piperidin-1-yl}-1,2,4-oxadiazol-3-yl)-2-N-phenyl-1,3,5-triazine-2,4-diamine] |
| – | 2.51 | Nc1nc(Nc2ccccc2)nc(-c2noc(C(=O)NC3CCCC3)n2)n1 [Example 218, 3-[4-amino-6-(phenylamino)-1,3,5-triazin-2-yl]-N-cyclopentyl-1,2,4-oxadiazole-5-carboxamide] |
| – | 1.96 | Nc1nc(Nc2cccc(F)c2)nc(-c2noc(C(=O)NC3CCCC3)n2)n1 [Example 219, 3-{4-amino-6-[(3-fluorophenyl)amino]-1,3,5-triazin-2-yl}-N-cyclopentyl-1,2,4-oxadiazole-5-carboxamide] |
| – | 0.833 | Nc1nc(Nc2ccccc2)nc(-c2noc(C(=O)N3CCCC3)n2)n1 [Example 220, 2-N-phenyl-6-{5-[(pyrrolidin-1 - yl)carbonyl]-1,2,4-oxadiazol-3-yl}-1,3,5-triazine-2,4-diamine] |
| – | 0.729 | Nc1nc(Nc2ccccc2)nc(-c2noc(N3CCCCC3)n2)n1 [Example 221, 2-N-Phenyl-6-[5-(piperidin-1-yl)-1,2,4-oxadiazol-3-yl]-1,3,5-triazine-2,4-diamine] |
| – | 7.71 | NC(=O)c1nc(-c2nc(N)nc(Nc3ccccc3)n2)no1 [Example 222, 3-[4-amino-6-(phenylamino)-1,3,5-triazin-2-yl]-1,2,4-oxadiazole-5-carboxamide] |
